Like-named read-outs stand apart in the source and are kept apart here.
What was measured:
[1] = system: Botrytis cinerea; conditions: in vivo
[2] = system: Sphaerotheca fuliginea; test: Cucumber powdery mildew preventive test; assay type: in vivo; conditions: in vivo
Protocol: In a greenhouse, cucumber (variety: Sagamihanshiro) planted in a plastic pot having a diameter of 5 cm was grown to the 3rd to 5th-leaf stage. Spray was carried out in the same manner as in Test example 1, and 3 days after the spray, a conidia suspension prepared from Sphaerotheca fuliginea were inoculated on the leaf surface. After inoculation, the pots were placed in a thermostatic greenhouse (20 to 25° C.), and controlling effects were examined after 7 days from the inoculation. In the examination, a ratio of lesion area occupied per one leaf of cucumber was determined according to the same index as in Test example 1, and the control value and the theoretical value according to Colby's formula were similarly calculated.
Wettable powder prepared in compliance with Comparative Preparation Example 4 containing the compounds indicated in Table 7-9 were sprayed to the cucumber leaves, a conidiospore suspension prepared from Sphaerotheca fuliginea was inoculated onto the plants, and the controlling effects were examined in a manner similar to Test Example 6.

[3] = system: Pyricularia oryzae; assay type: in vivo; conditions: Table 3-4, group b ingredient alone
[4] = treatment concentration 10 + 10 ppm
[5] = treatment concentration 10 + 2 ppm

Molecule | Preventive value [1] | Preventive value [2] | further results
CCCCC(C#N)(Cn1cncn1)c1ccc(Cl)cc1 (stereo not drawn) [Myclobutanil (b-35), Myclobutanil] | 17 | 33 | –
C=CCOC(Cn1ccnc1)c1ccc(Cl)cc1Cl (stereo not drawn) [Imazalil (b-20), Imazalil] | 17 | 40 | –
Cn1cc(C(=O)Nc2ccc(F)cc2-c2ccc(Cl)c(Cl)c2)c(C(F)F)n1 [Bixafen (b-4), Bixafen] | 33 | – | Preventive value [3, 4]: 33
CCCN(CCOc1c(Cl)cc(Cl)cc1Cl)C(=O)n1ccnc1 [Prochloraz (b-21), Prochloraz] | 17 | – | –
CC(Cc1ccc(C(C)(C)C)cc1)CN1C[C@@H](C)O[C@@H](C)C1 (stereo partly drawn) [Fenpropimorph (b-65), Fenpropimorph] | 17 | 33 | –
FC(F)C(F)(F)OCC(Cn1cncn1)c1ccc(Cl)cc1Cl (stereo not drawn) [Tetraconazole (b-22), Tetraconazole] | 40 | 50 | –
OC(Cn1cncn1)(c1ccc(F)cc1)c1ccccc1F (stereo not drawn) [Flutriafol (b-34), Flutriafol] | 33 | 40 | –
CON=C(C(=O)OC)c1ccccc1CON=C(C)c1cccc(C(F)(F)F)c1 [Trifloxystrobin (b-55), Trifloxystrobin] | 33 | – | Preventive value [3, 5]: 57
CCCC(Cn1cncn1)c1ccc(Cl)cc1Cl (stereo not drawn) [Penconazole(b-32)] | – | 47 | –
CC(C1CC1)C(O)(Cn1cncn1)c1ccc(Cl)cc1 (stereo not drawn) [Cyproconazole (b-28), Cyproconazole] | 17 | 47 | –
COc1ccccc1N1CCS/C1=C(/C#N)Sc1cc(C(F)(F)F)ccc1F [Flutianil (b-77), Flutianil] | 17 | 67 | –
CCCC(Cn1cncn1)c1ccc(Cl)cc1Cl (stereo not drawn) [Penconazole (b-32), Penconazole] | 17 | – | –
CCCOc1nc2ccc(I)cc2c(=O)n1CCC [Proquinazid (b-100), Proquinazid] | 17 | 40 | –
CON(C(=O)c1cn(C)nc1C(F)F)C(C)Cc1c(Cl)cc(Cl)cc1Cl (stereo not drawn) [Compound of formula (III) (b-8)] | 40 | 60 | –
Cc1nn(C)c(Nc2c(F)cc(Cl)cc2F)c1-c1ccc(F)cc1Cl [Compound of formula (XV)-1 (b-89)] | 40 | 40 | –
OP(O)O [Phosphorous acid (b-105), Phosphorous acid] | 33 | 33 | –
Cc1cc(C)nc(Nc2ccccc2)n1 [Pyrimethanil (b-62), Pyrimethanil] | 33 | – | Preventive value ([3]; treatment concentration printed 10 + 50 ppm): 33
S1SSSSSSS1 [Sulfur (b-96), Sulfur] | 0 | 73 | –
c1ccc2[nH]c(-c3cscn3)nc2c1 [Thiabendazole (b-60), Thiabendazole] | 57 | 40 | –
Metiram [Metiram (b-67)] | – | 33 | –

Molecule | Preventive value [1] | Preventive value [2] | further results
O=c1c2cc(F)ccc2nc(-n2cncn2)n1-c1ccc(Cl)cc1Cl [Fluquinconazole (b-30), Fluquinconazole] | 33 | 47 | –
CN(C)C(=S)SSC(=S)N(C)C [Thiuram (b-68), Thiuram] | – | 33 | –
CCCN(CC)CC1COC2(CCC(C(C)(C)C)CC2)O1 (stereo not drawn) [Spiroxamine (b-101), Spiroxamine] | 17 | 33 | –
Cc1nc(C(F)(F)F)c(C(=O)Nc2c(Br)cc(OC(F)(F)F)cc2Br)s1 [Thifluzamide (b-42), Thifluzamide] | 23 | – | Control value [2]: 73
CO/C=C(/C(=O)OC)c1ccccc1COc1cccc(C(F)(F)F)n1 [Picoxystrobin (b-16), Picoxystrobin] | – | – | Preventive value [3, 5]: 50
COC(=O)NCc1cc(/C(C)=N/OCc2cccc(C)n2)ccc1Cl [Pyribencarb (b-98), Pyribencarb] | 40 | – | –
CN1OC(c2ccc(Cl)cc2)CC1(C)c1cccnc1 (stereo not drawn) [Pyrisoxazole (b-103), Pyrisoxazole] | – | 33 | –
CCN(C)/C=N/c1cc(C)c(Oc2nc(Cc3ccc(Cl)cc3)ns2)cc1C [Compound of formula (XVII) (b-91)] | 40 | 40 | –
OC(Cc1ccccc1Cl)(Cn1nc[nH]c1=S)C1(Cl)CC1 (stereo not drawn) [Prothioconazole (b-23), Prothioconazole] | 33 | – | Preventive value [3, 4]: 33
Fc1ccc(C2(Cn3nc[nH]c3=S)OC2c2ccccc2Cl)c(F)c1 (stereo not drawn) [Compound of (V) (b-36)] | 40 | 33 | –
OC(c1cccnc1)c1c(-c2ccc(Cl)cc2F)noc1-c1ccc(F)cc1F (stereo not drawn) [Compound of (XVIII) (b-92)] | 50 | 40 | –
CC(C)c1ccc(Cl)cc1CN(C(=O)c1c(C(F)F)nn(C)c1F)C1CC1 [Compound of formula (IV) (b-9)] | 40 | 60 | –
Fc1ccc(Oc2ccnc3cc(Cl)cc(Cl)c23)cc1 [Quinoxyfen (b-63), Quinoxyfen] | 17 | 60 | –
COC(=O)Nc1nc2ccccc2[nH]1 [Carbendazim (b-59), Carbendazim] | 40 | – | –
C[Si](Cn1cncn1)(c1ccc(F)cc1)c1ccc(F)cc1 [Flusilazole (b-31), Flusilazole] | 17 | 33 | –
CC(C)(C)C(O)C(Oc1ccc(Cl)cc1)n1cncn1 (stereo not drawn) [Triadimenol (b-33), Triadimenol] | 17 | – | Preventive value ([3]; treatment concentration printed 10 + 250 ppm): 33
COC(=O)N(OC)c1ccccc1COc1ccn(-c2ccc(Cl)cc2)n1 [Pyraclostrobin (b-19), Pyraclostrobin] | – | – | Preventive value [3, 5]: 40
COc1cc(C)c(C(=O)c2c(OC)ncc(Cl)c2C)c(OC)c1OC [Pyriofenone (b-83), Pyriofenone] | 33 | 40 | –
CCCCNC(=O)n1c(NC(=O)OC)nc2ccccc21 [Benomyl (b-58), Benomyl] | 60 | 50 | –
COc1cc(C)c(C(=O)c2c(OC)ccc(Br)c2C)c(OC)c1OC [Metrafenone (b-82), Metrafenone] | 0 | 40 | –

Molecule | Preventive value [1] | Preventive value [2] | further results
Cc1nn(C)c(F)c1C(=O)Nc1ccccc1C(C)CC(C)C (stereo not drawn) [Penflufen (b-5), Penflufen] | 47 | – | Control value [2]: 73
Cc1cc(C2CC2)nc(Nc2ccccc2)n1 [Cyprodinil (b-61), Cyprodinil] | 50 | – | Control value [2]: 40
Fc1ccc([C@]2(Cn3cncn3)O[C@H]2c2ccccc2Cl)cc1 (racemic) [Epoxiconazole (b-24), Epoxiconazole] | 33 | 40 | –
C=CCSC(=O)n1c(N)c(-c2ccccc2C)c(=O)n1C(C)C [Fenpyrazamine (b-99), Fenpyrazamine] | – | – | Control value [2]: 33
N#Cc1ccccc1NC(=O)c1snc(Cl)c1Cl [Isotianil (b-46), Isotianil] | – | – | Preventive value [3, 4]: 50
N#Cc1ccccc1NC(=O)c1snc(Cl)c1Cl [Isotianil(b-46)] | – | 33 | –
O=C1c2ccccc2C(=O)N1SC(Cl)(Cl)Cl [Folpet (b-70), Folpet] | 73 | 33 | –
CCCCCCCCCCCCCN1CC(C)OC(C)C1 (stereo not drawn) [Tridemorph (b-66), Tridemorph] | 17 | 33 | –
CC(C)C1CCC(Cc2ccc(Cl)cc2)C1(O)Cn1cncn1 (stereo not drawn) [Ipconazole (b-25), Ipconazole] | 40 | 50 | –
Cc1ccc2nc3sc(=O)sc3nc2c1 [Chinomethionat (b-74), Chinomethionat] | 17 | 50 | –
CC1(C)CCC(Cc2ccc(Cl)cc2)C1(O)Cn1cncn1 (stereo not drawn) [Metconazole (b-26), Metconazole] | 40 | 50 | –
CC(Cc1ccc(C(C)(C)C)cc1)CN1CCCCC1 (stereo not drawn) [Fenpropidin (b-102), Fenpropidin] | 17 | 40 | –
CC1COC(Cn2cncn2)(c2ccc(Oc3ccc(Cl)cc3)cc2Cl)O1 (stereo not drawn) [Difenoconazole (b-29), Difenoconazole] | 33 | 40 | –
CCCC1COC(Cn2cncn2)(c2ccc(Cl)cc2Cl)O1 (stereo not drawn) [Propiconazole (b-27), Propiconazole] | 33 | 40 | –
Cn1cc(C(=O)Nc2ccccc2C2CC2C2CC2)c(C(F)F)n1 (stereo not drawn) [Sedaxane (b-6), Sedaxane] | 50 | – | Control value [2]: 40
CCCN(CCOc1c(Cl)cc(Cl)cc1Cl)C(=O)n1ccnc1 [Prochloraz(b-21)] | – | 50 | –
Propineb [Propineb (b-69)] | 33 | 17 | –
CC(C)C1C2CCC1c1c(NC(=O)c3cn(C)nc3C(F)F)cccc12 (stereo not drawn) [Isopyrazam (b-7), Isopyrazam] | 40 | – | Control value [2]: 40
CNC(=O)/C(=N/OC)c1ccccc1Oc1ccccc1 [Metominostrobin (b-54), Metominostrobin] | – | – | Preventive value [3, 5]: 40
CC1=C(C(=O)Nc2ccccc2)SCCO1 [Carboxin (b-41), Carboxin] | 17 | – | Control value [2]: 40
